According to paper PMC10819458, “Using Pharmacokinetic–Pharmacodynamic Modeling to Study the Main Active Substances of the Anticancer Effect in Mice from Panax ginseng–Ophiopogon japonicus” (Molecules, 2024):
Read-outs that look alike come from different tables or passages of the source.

Test: Lung-tissue pharmacokinetics of PG–OJ components in tumor-bearing mice (UPLC–MS/MS)
Assay type: in vivo, BALB/c nude male mice
Settings: for MRT last: read-out: MRT(0–t) (converted)
Description: This study employed Ultra-Performance Liquid Chromatography–Mass Spectrometry (UPLC–MS/MS) to examine the pharmacokinetic properties of 20 bioactive components in a cell-derived xenograft (CDX) model following oral administration of a 10.2 g/kg PG–OJ extract.
Healthy BALB/c nude male mice (weight: 18–21 g) were purchased from Beijing Huafukang Biotechnology Co., Ltd. (Beijing, China, License Number: SCXK (Jing) 2021-0006). After 3 days of acclimatization, the mice were randomly divided into the control group (CG), model group (MG), and the combined-administration group of P. ginseng and O. japonicus (HM1-HM13) ([…], four-fold clinical-equivalent doses). Subsequently, except for the CG, 0.2 mL (approximately 2 × 10^7 cells) of A549 cell suspension was aspirated with a 1 mL syringe and injected into the right axillary fossa of the model group and drug-administration-group mice. The control-group mice were injected with an equal volume of PBS at the same location. The tumor diameter was measured daily using a caliper. The model was successful when the tumor diameter > 3 mm. The combined-administration group of P. ginseng and O. japonicus was given the corresponding drug orally, once a day, with 0.2 mL/mouse each time. The control group and the model group mice were given the same volume of distilled water, continuously orally for 21 days. During this period, the body weight and tumor volume of the mice were recorded. At the end of the last administration, the mice were […] 0.083, 0.167, 0.25, 0.5, 0.75, 1, 2, 3, 4, 6, 8, 12, 24 h later. After injecting 0.1% pentobarbital sodium, blood was collected from the eye-socket vein, the mice were decapitated, and the tumor and lung tissues were carefully removed.
After homogenizing 50 mg of right-lung-tissue sample, 2 mL of acetonitrile was added to precipitate proteins. The mixture was oscillated for 2 min and then centrifuged for 10 min (12,000 rpm, 4 °C). The supernatant from the new centrifuge tube was collected and dried with nitrogen at room temperature. Finally, the supernatant was redissolved in 50 μL of acetonitrile solution containing 0.1% formic acid. After oscillating for 1 min, another centrifugation step was performed, and the resulting supernatant was used for analysis.
Samples were analyzed on the Vanquish UPLC System (Thermo, Waltham, MA, USA). The Agilent C18 column (4.6 × 150 mm, 4 μm, PN:693970-902T) was selected. The mobile phase was composed of 0.1% formic acid aqueous solution (A) and 0.1% formic acid acetonitrile solution (B). The procedure of gradient elution was as follows: 0–10 min, 95–75% A; 10–25 min, 75–45% A; 25–40 min, 45–30% A; 40–50 min, 30–5% A; 55–55.1 min, 5–95% A; 55.1–60 min, 95% A. The column temperature was set to 30 °C with the flow rate of 0.3 mL/min and the injection volume of 3.0 μL. The mass-spectrometry detection with negative-ion mode was carried out using an Orbitrap Exploris 120 Mass Spectrometer (Thermo, Waltham, MA, USA) and Electrospray ionization (ESI). The sheath-gas-flow rate was […] and the auxiliary-gas-flow rate was […]. The capillary temperature was 325 °C, and the resolution was 120,000 in full scan mode with the mass scan range of 80~1500 m/z. The secondary cracking was performed with HCD at a collision voltage of 30 eV, and unnecessary MS/MS information was removed using the dynamic exclusion method.

[1] = male, BALB/c nude, mouse, in vivo, po
[2] = male, BALB/c nude, mouse, in vivo, po, Tmax
[3] = lung tissue, A549 tumor-bearing mice, intragastric PG–OJ extract 10.2 g/kg (6.8 g/kg elsewhere in the source), mean ± SD, n = 6
[4] = lung tissue, oral PG–OJ extract, in words
[5] = male, BALB/c nude, mouse, lung tissue, po, 10.2 g/kg, lung tissue, A549 tumor-bearing mice, intragastric PG–OJ extract 10.2 g/kg (6.8 g/kg elsewhere in the source), mean ± SD, n = 6, read-out: Tmax (converted)
[6] = male, BALB/c nude, mouse, lung tissue, po, 10.2 g/kg, lung tissue, oral PG–OJ extract, read-out: time to reach peak concentration
[7] = male, BALB/c nude, mouse, po, lung tissue, A549 tumor-bearing mice, intragastric PG–OJ extract 10.2 g/kg (6.8 g/kg elsewhere in the source), mean ± SD, n = 6, read-out: Cmax
[8] = male, BALB/c nude, mouse, po, lung tissue, A549 tumor-bearing mice, intragastric PG–OJ extract 10.2 g/kg (6.8 g/kg elsewhere in the source), mean ± SD, n = 6
[9] = male, BALB/c nude, mouse, po, lung tissue, A549 tumor-bearing mice, intragastric PG–OJ extract 10.2 g/kg (6.8 g/kg elsewhere in the source), mean ± SD, n = 6, read-out: T1/2
[10] = lung tissue, oral PG–OJ extract

| AUC(0–t) [3] | AUC(0–∞) [3] | Tmax [5] [h] | Cmax [7] [ng/g] | MRT last [8] [h] | half-life [9] [h] | Compound | half-life [1] [h] | Tmax [2] [h] | also measured |
| --- | --- | --- | --- | --- | --- | --- | --- | --- | --- |
| 227,245.91 ± 5460.47 ng/g·min | 283,948.70 ± 17,261.40 ng/g·min | 12 | 441 ± 15.7 | 11.5 | 32.9 ± 3.15 | CC(C)=CCC[C@](C)(O[C@@H]1O[C@H](CO[C@@H]2O[C@H](CO)[C@@H](O)[C@H](O)[C@H]2O)[C@@H](O)[C@H](O)[C@H]1O)[C@H]1CC[C@]2(C)[C@@H]1[C@H](O)C[C@@H]1[C@@]3(C)CC[C@H](O[C@@H]4O[C@H](CO)[C@@H](O)[C@H](O)[C@H]4O[C@@H]4O[C@H](CO)[C@@H](O)[C@H](O)[C@H]4O)C(C)(C)[C@@H]3CC[C@]12C [Ginsenoside Rb1] |  |  | AUC(0–∞) compared with other components [4]: significantly higher than those of other components; Tmax [6]: 12 h |
| 3935.63 ± 598.40 ng·min/g | 6076.50 ± 664.68 ng·min/g |  | 7.2 ± 0.96 | 11.9 | 19.9 ± 4.38 | CC(C)=CCC[C@](C)(O[C@@H]1O[C@H](CO[C@@H]2OC[C@H](O)[C@H](O)[C@H]2O)[C@@H](O)[C@H](O)[C@H]1O)[C@H]1CC[C@]2(C)[C@@H]1[C@H](O)C[C@@H]1[C@@]3(C)CC[C@H](O[C@@H]4O[C@H](CO)[C@@H](O)[C@H](O)[C@H]4O[C@@H]4O[C@H](CO)[C@@H](O)[C@H](O)[C@H]4O)C(C)(C)[C@@H]3CC[C@]12C [Ginsenoside Rb2] |  |  |  |
| 4049.29 ± 622.84 ng·min/g | 16,689.44 ± 2585.97 ng/g·min |  | 5.92 ± 0.45 | 13.8 | 66.6 ± 8.6 | CC(C)=CCC[C@](C)(O[C@@H]1O[C@H](CO[C@@H]2OC[C@@H](O)[C@H](O)[C@H]2O)[C@@H](O)[C@H](O)[C@H]1O)[C@H]1CC[C@]2(C)[C@@H]1[C@H](O)C[C@@H]1[C@@]3(C)CC[C@H](O[C@@H]4O[C@H](CO)[C@@H](O)[C@H](O)[C@H]4O[C@@H]4O[C@H](CO)[C@@H](O)[C@H](O)[C@H]4O)C(C)(C)[C@@H]3CC[C@]12C [Ginsenoside Rb3] |  |  |  |
| 23,180.66 ± 703.80 ng/g·min | 25,129.88 ± 1611.92 ng/g·min | 12 | 43 ± 2.11 | 11.6 | 7.41 ± 1.68 | CC(C)=CCC[C@](C)(O[C@@H]1O[C@H](CO[C@@H]2O[C@@H](CO)[C@H](O)[C@H]2O)[C@@H](O)[C@H](O)[C@H]1O)[C@H]1CC[C@]2(C)[C@@H]1[C@H](O)C[C@@H]1[C@@]3(C)CC[C@H](O[C@@H]4O[C@H](CO)[C@@H](O)[C@H](O)[C@H]4O[C@@H]4O[C@H](CO)[C@@H](O)[C@H](O)[C@H]4O)C(C)(C)[C@@H]3CC[C@]12C [Ginsenoside Rc] |  |  | Tmax [6]: 12 h |
| 3815.68 ± 233.30 ng·min/g | 3933.20 ± 224.66 ng·min/g | 0.0833 | 132 ± 32.9 | 1.57 | 1.76 ± 0.0727 | CC(C)=CCC[C@](C)(O[C@@H]1O[C@H](CO)[C@@H](O)[C@H](O)[C@H]1O)[C@H]1CC[C@]2(C)[C@@H]1[C@H](O)C[C@@H]1[C@@]3(C)CC[C@H](O)C(C)(C)[C@@H]3[C@@H](O[C@@H]3O[C@H](CO)[C@@H](O)[C@H](O)[C@H]3O[C@@H]3O[C@@H](C)[C@H](O)[C@@H](O)[C@H]3O)C[C@]12C [Ginsenoside Re] |  |  | time to reach maximum concentration (Cmax) after administration [10]: ≤ 15 min |
| 2295.03 ± 213.32 ng·min/g | 2345.90 ± 212.68 ng·min/g | 0.25 | 50.2 ± 6.67 | 2.26 | 1.64 ± 0.0457 | CC(C)=CCC[C@](C)(O[C@@H]1O[C@H](CO)[C@@H](O)[C@H](O)[C@H]1O)[C@H]1CC[C@]2(C)[C@@H]1[C@H](O)C[C@@H]1[C@@]3(C)CC[C@H](O)C(C)(C)[C@@H]3[C@@H](O[C@@H]3O[C@H](CO)[C@@H](O)[C@H](O)[C@H]3O)C[C@]12C [Ginsenoside Rg1] |  |  | time to reach maximum concentration (Cmax) after administration [10]: ≤ 15 min |

More lines, now with the values behind:

| Compound | AUC(0–t) [3] | AUC(0–∞) [3] | Tmax [5] [h] | Cmax [7] [ng/g] | MRT last [8] [h] | half-life [9] [h] | half-life [1] [h] | Tmax [2] [h] | also measured |
| --- | --- | --- | --- | --- | --- | --- | --- | --- | --- |
| 24(R)-pseudoginsenoside F11 |  |  |  |  |  |  |  |  | T1/2 (mouse, in vivo, po): 3.786 ± 0.2045 h; Tmax (mouse, in vivo, po): 0.25 ± 0 h; time to reach maximum concentration (Cmax) after administration (mouse, in vivo, po): ≤ 15 min |
| CC(C)=CCC[C@](C)(O[C@@H]1O[C@H](CO)[C@@H](O)[C@H](O)[C@H]1O)[C@H]1CC[C@]2(C)[C@@H]1[C@H](O)C[C@@H]1[C@@]3(C)CC[C@H](O)C(C)(C)[C@@H]3[C@@H](O)C[C@]12C [Ginsenoside F1] |  |  |  |  |  |  | 2.24 ± 0.241 | 4 | exposure level in lung tissue (mouse, in vivo, po): extremely low |
| CC(C)=CCC[C@](C)(O[C@@H]1O[C@H](CO)[C@@H](O)[C@H](O)[C@H]1O)[C@H]1CC[C@]2(C)[C@@H]1[C@H](O)C[C@@H]1[C@@]3(C)CC[C@H](O[C@@H]4O[C@H](CO)[C@@H](O)[C@H](O)[C@H]4O)C(C)(C)[C@@H]3CC[C@]12C [Ginsenoside F2] |  |  |  |  |  |  | 5.83 ± 0.269 | 1 | AUC(0–∞) compared with other components (mouse, in vivo, po): significantly higher than those of other components |
| CC(C)=CCC[C@](C)(O[C@@H]1O[C@H](CO)[C@@H](O)[C@H](O)[C@H]1O)[C@H]1CC[C@]2(C)[C@@H]1[C@H](O)C[C@@H]1[C@@]3(C)CC[C@H](O[C@@H]4O[C@H](CO)[C@@H](O)[C@H](O)[C@H]4O[C@@H]4O[C@H](CO)[C@@H](O)[C@H](O)[C@H]4O)C(C)(C)[C@@H]3CC[C@]12C [Ginsenoside Rd] | 46,163.94 ± 1033.00 ng/g·min | 56,296.57 ± 6663.99 ng/g·min |  | 83 ± 2.11 | 11.1 | 16.2 ± 3.68 |  |  | AUC(0–∞) compared with other components [4]: significantly higher than those of other components |
| CC(C)=CCC[C@](C)(O)[C@H]1CC[C@]2(C)[C@@H]1[C@H](O)C[C@@H]1[C@@]3(C)CC[C@H](O)C(C)(C)[C@@H]3[C@@H](O[C@@H]3O[C@H](CO)[C@@H](O)[C@H](O)[C@H]3O[C@@H]3O[C@H](CO)[C@@H](O)[C@H](O)[C@H]3O)C[C@]12C [Ginsenoside Rf] |  |  |  |  |  |  | 1.28 ± 0.0173 | 0.25 | time to reach maximum concentration (Cmax) after administration (mouse, in vivo, po): ≤ 15 min |
| CC(C)=CCC[C@](C)(O)[C@H]1CC[C@]2(C)[C@@H]1[C@H](O)C[C@@H]1[C@@]3(C)CC[C@H](O)C(C)(C)[C@@H]3[C@@H](O[C@@H]3O[C@H](CO)[C@@H](O)[C@H](O)[C@H]3O[C@@H]3O[C@@H](C)[C@H](O)[C@@H](O)[C@H]3O)C[C@]12C [Ginsenoside Rg2] |  |  |  |  |  |  | 3.58 ± 0.103 | 0.25 | AUC(0–∞) compared with other components (mouse, in vivo, po): significantly higher than those of other components; time to reach maximum concentration (Cmax) after administration (mouse, in vivo, po): ≤ 15 min |
| CC(C)=CCC[C@](C)(O)[C@H]1CC[C@]2(C)[C@@H]1[C@H](O)C[C@@H]1[C@@]3(C)CC[C@H](O[C@@H]4O[C@H](CO)[C@@H](O)[C@H](O)[C@H]4O[C@@H]4O[C@H](CO)[C@@H](O)[C@H](O)[C@H]4O)C(C)(C)[C@@H]3CC[C@]12C [Ginsenoside Rg3] | 1879.87 ± 53.24 ng·min/g | 14,133.43 ± 3134.88 ng/g·min |  |  |  |  |  |  | Cmax [3]: 4.75 ± 0.12 ng/g; MRT(0–t) [3]: 3.8352 ± 0.0448 h; T1/2 [3]: 39.6943 ± 9.3722 h; Tmax [3]: 0.0833 ± 0 h |
